From article PMC10590756, “Glutarate regulates T cell metabolism and anti-tumour immunity” (Nature Metabolism, 2023)

Key:
PDHE2 K259 in HeLa cells = molecular target: T1, PDHE2 K259 in HeLa cells (Homo sapiens, UniProt P10515); assay: Proteomic analysis of PTMs on immunoprecipitated PDHE2; assay type: cell-based; details: 500 µM DEG, 24 h
T1 construct: Proteomic analysis of PDHE2 immunoprecipitated from HeLa cells; endogenous in cells; host or cells: HeLa cells
Description: HeLa cells were lysed on ice for 30 min in a HEPES buffer (150 mM NaCl, 50 mM HEPES, pH 7.0, 1% IGEPAL CA-630, 1 mM nicotinamide (Sigma-Aldrich), 5 mM Tris(2-carboxyethyl)phosphine hydrochloride (Sigma-Aldrich), 1× Complete Protease Inhibitor Cocktail (Roche) and 1 mM phenylmethylsulfonyl fluoride). Lysates were centrifuged at 14,000g for 10 min at 4 °C. Free thiols were blocked by adding 10 mM N-ethylmaleimide (NEM) (Sigma-Aldrich) and incubated on a rotator at 4 °C for 1 h. Lysates were immunoprecipitated by incubation with protein G Dynabeads (catalogue no. 10003D, Invitrogen), first for 1 h to pre-clear, and then overnight with the DLAT antibody (12362S (4A4-B6-C10), Cell Signaling Technology). […]
Raw files were processed using PEAKS Studio (v.8.0, Bioinformatics Solutions) with the following parameters: enzyme: AspN, human database (UniProt reference proteome downloaded 21 January 2021 containing 20,541 proteins) with additional contaminant database (containing 246 common contaminants); variable modifications at PEAKS database stage: oxidation, carbamidomethylation, lipoylation, 1× and 2× NEM, glutaryl lipoate, NEM glutaryl lipoate and 309 built-in modifications at PEAKS PTM stage. The area under the curve (AUC) values for each peptide were extracted from the PEAKS peptide list, with AUCs calculated by PEAKS.

human CD8^+ T cells = assay: Glucose uptake assay; assay type: cell-based; details: 500 µM DEG, acute and chronic
Description: Glucose uptake was determined using a Glucose Uptake Assay Kit (catalogue no. J1341, Promega Corporation). The assay was performed according to the manufacturer’s instructions. Data were acquired on the FLUOstar Omega.

CD8^+ T cells = assay: Seahorse analysis of ECAR and OCR (GST, MST, fuel flex test); assay type: cell-based, human
Description: To explore further the metabolic consequences of this observed glutarate-induced reduction in PDHc activity, we performed a glycolysis stress test (GST). Acute effects were determined by treating CD8^+ T cells with DEG for 30 min while plated in the Seahorse XF Analyzer. Chronic effects were determined by performing a standard GST in CD8^+ T cells that had been cultured with DEG for 7 days before assay.
To better understand the consequences of providing glutarate as a fuel for mitochondrial oxidation, we measured cellular oxygen consumption while inhibiting, in different combinations, fatty acid, glucose and glutamine oxidation, the three main fuel sources for mitochondrial oxidation (Extended Data Fig. 4i). This was achieved via injection of etomoxir, UK5099 and Bis-2-(5-phenylacetamido-1,3,4-thiadiazol-2-yl)ethyl sulphide (BPTES), respectively, in cells plated in a Seahorse XF Analyzer.
A Seahorse XFe bioanalyzer was used to measure the OCR and ECAR. A total of 1.5 × 10^5 CD8^+ T cells per well were spun onto poly-D-lysine-coated (catalogue no. P7280, Sigma-Aldrich) Seahorse plates and preincubated at 37 °C for a minimum of 30 min in the absence of CO2 in Seahorse XF RPMI medium, pH 7.4 (10376-100, Agilent), supplemented with 10 mM glucose (catalogue no. A2494001, Thermo Fisher Scientific) and 2 mM glutamine (catalogue no. 25030081, Thermo Fisher Scientific). A minimum of five technical replicates per biological replicate were used. For the MST and GST, OCR and ECAR were measured under basal conditions and after the addition of the following: 750 µM DEG (catalogue no. QB-1473, Combi-block), 0.05% DMSO, 1 μM oligomycin (catalogue no. 75351, Sigma-Aldrich), 1.5 μM FCCP (catalogue no. C2920, Sigma-Aldrich), 100 nM rotenone + 1 μM antimycin A (catalogue nos. R8875 and A8674, Sigma-Aldrich), 10 mM glucose and 50 mM 2-DG (catalogue no. B1048-100, BioVision) as indicated. To assess mitochondrial fuel use, OCR was measured subsequent to the addition of the following drugs in different combinations as indicated: 3 µM BPTES (catalogue no. SML0601, Sigma-Aldrich), 2 µM UK-5099 (catalogue no. PZ0160, Sigma-Aldrich) and 4 µM etomoxir (catalogue no. E1905, Sigma-Aldrich). Assay parameters were as follows: 3 min mix, no wait, 3 min measurement, repeated 3–5 times at basal and after each addition. Measurements were taken using a 96-well Extracellular Flux Analyzer (Seahorse Bioscience).

[1] = fuel flex test, 500 µM DEG, 7 days, other fuel sources limited

T1 sequence (P10515 87-647): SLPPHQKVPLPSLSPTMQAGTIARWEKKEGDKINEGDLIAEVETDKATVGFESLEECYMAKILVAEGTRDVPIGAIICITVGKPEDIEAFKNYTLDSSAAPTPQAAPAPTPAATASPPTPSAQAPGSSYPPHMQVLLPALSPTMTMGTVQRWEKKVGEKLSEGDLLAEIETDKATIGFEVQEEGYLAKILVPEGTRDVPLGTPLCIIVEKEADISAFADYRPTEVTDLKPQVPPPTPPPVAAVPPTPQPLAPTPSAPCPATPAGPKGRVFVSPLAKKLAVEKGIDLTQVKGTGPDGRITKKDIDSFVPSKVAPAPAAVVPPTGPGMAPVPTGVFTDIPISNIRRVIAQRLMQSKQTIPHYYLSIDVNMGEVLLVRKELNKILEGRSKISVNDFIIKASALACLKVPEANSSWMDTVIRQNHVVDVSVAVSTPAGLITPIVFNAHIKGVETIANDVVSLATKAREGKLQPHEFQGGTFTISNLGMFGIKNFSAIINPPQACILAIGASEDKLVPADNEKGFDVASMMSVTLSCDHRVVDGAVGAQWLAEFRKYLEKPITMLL

CCOC(=O)CCCC(=O)OCC [DEG, Diethyl glutarate]
levels of glutaryl-lipoyl K259 of PDHE2 (PDHE2 K259 in HeLa cells): increasing
levels of lipoyl K259 of PDHE2 (PDHE2 K259 in HeLa cells): reduced
rate of glucose uptake (human CD8^+ T cells): no changes
maximal OCR, cells treated 7 days with DEG (CD8^+ T cells; 500 µM DEG, 7 days): reduced maximal OCR
basal oxygen consumption rates (OCRs) (CD8^+ T cells; 500 µM DEG, acute and chronic, with or without glucose and glutamine): either maintained or increased
basal extracellular acidification rate (ECAR) (CD8^+ T cells; DEG 30 min (acute) or 7 days (chronic)): increases
glycolytic rate (GST), acute exposure (CD8^+ T cells; DEG 30 min in the Seahorse XF Analyzer): increased glycolytic rate
effect of FCCP on OCR (MST), cells treated acutely with DEG (CD8^+ T cells; acute DEG): did not have an effect
glycolytic rate (GST), chronic exposure (CD8^+ T cells; cultured with DEG for 7 days): increased glycolytic rate
dependence on fatty acid, glucose and glutamine oxidation (CD8^+ T cells; fuel flex test, 500 µM DEG, 7 days): not more dependent
capacity to oxidize fatty acids (CD8^+ T cells; [1]): increased capacity
capacity to oxidize glucose (CD8^+ T cells; [1]): increased capacity
